This is an account of results in US6770624B2, “Treatment of heart failure with growth hormone” (The Regents of the University of California, priority 1997, dated 2004).

One assay relates to AT1 receptor. Nature of the assay: Angiotensin II dose-response curves for changes in carotid arterial pressure (confirmation of AT1 receptor blockade). The class given is in vivo, rat. As to conditions: losartan 2 g/L in drinking water for 2 weeks; normal rats and rats with chronic MI. The procedure:
In order to confirm AT1 receptor blockade with losartan, angiotensin II dose-response curves for changes in carotid arterial pressure were carried out in an additional 14 female Sprague-Dawley rats (260-300 g/each). Eight rats were normal, 4 untreated and 4 treated for 2 weeks with losartan (2 g/L in drinking water). In 6 rats a large MI was produced 3 to 4 weeks prior to study, of which 3 received losartan (2 g/L in drinking water) for 2 weeks and 3 were untreated.

The subject of another assay is normal rats. The assay can be described thus: Body, organ and cardiac weights in normal rats after AT1 blockade and GH. The class given is in vivo, rat. As to conditions: mean ± SD, n=8. Here is the method:
Normal Rats: Normal female Sprague Dawley rats (240-260 g each) were randomized to one of the following four groups: rats receiving placebo for 6 weeks (Control group, n=8); rats treated with placebo for 6 weeks with concomitant rhGH (2 mg/kg bid) for the final 2 weeks (GH group, n=8); rats treated with relatively low-dose losartan (L) (20 mg/kg/day in drinking water) for 6 weeks with concomitant rhGH (2 mg/kg/bid, SC) during the final 2 weeks (LowL+GH, n=8); and rats treated with high dose L (2 g/L in drinking water) for 6 weeks with concomitant rhGH (2 mg/kg/bid, SC) during the final 2 weeks (HighL+GH, n=8). In these 32 animals, the responses of body weight (BW) and the weights of the heart and other selected organs were then examined.
After the hemodynamic measurements, the rats were euthanized and wet weights of heart and other selected organs, including liver, spleen, and kidney, were measured. Cardiac fixation was then performed as described by R. L. Duerr (1996) supra. In brief, polyethylene catheters were introduced into the LV apex and the descending aorta. The LV chamber was filled from a reservoir and maintained at 10 mmHg. After washout of blood from the coronary arteries with heparinized saline, the myocardium was perfused retrogradely from the aorta with 10% buffered formalin at a constant pressure of 60 mmHg for 20 minutes. The heart was then excised and immersed in 10% formalin for 24 hours. Subsequently, the atria and adhesions were dissected away and the right ventricle (RV) and LV were separated and weighted, the interventricular septum being included with the LV. The right tibia was dissected and its length from the condyles to the tip of the medial malleolus was measured with a micrometer caliper by the method of Yin et al., Am J Physiol (1982); 243. To compare heart weights among groups, the weights were normalized by tibial length (TL) as well as by body weight (BW).

In the case of `CCCCc1nc(Cl)c(CO)n1Cc1ccc(-c2ccccc2-c2nn[nH]n2)cc1` [Losartan, losartan], in the assay with AT1 receptor, the “shift of angiotensin II-blood pressure dose-response curves” value is given as “marked rightward shifts”.
Turning to “GH: recombinant human growth hormone; placebo 6 weeks with rhGH 2 mg/kg bid for the final 2 weeks”, in the assay on normal rats (6 weeks, rhGH final 2 weeks), the “BW (body weight)” value came out at 319.9 ± 15.9 g, the Kidney weight is 2.30 ± 0.19 g, the Liver weight was determined as 13.69 ± 0.94 g and the Spleen weight worked out at 1.21 ± 0.10 g. Also, in the assay on normal rats (6 weeks, rhGH final 2 weeks), the “TL (tibia length)” value stood at 4.05 ± 0.08 cm. In the assay with normal rats, the HW/BW amounted to 0.45 ± 0.04%, the LV/BW is given as 0.33 ± 0.01% and the RV/BW was found to be 0.08 ± 0.01%. Further, in the assay with normal rats (measured after fixation), the LV wt is on record as 1.04 ± 0.06 g and the RV wt came out at 0.26 ± 0.02 g. For the same compound, the “HW (heart weight)” value in the assay with normal rats (measured before fixation) is reported as 1.42 ± 0.12 g.
